Measurements reported in PubChem BioAssay AID1963438 (Molecular Pharmacology Branch, DTP, NCI, 2024).

Tested on: NCI-H510 multicellular tumor spheroid growth, % test/control
Test: Anticancer human tumor NCI-H510 cell line growth inhibition [Asc];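 note: spheroids exposed to agents for 7 days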;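 for viability, T/C: 100% = DMSO vehicle control wells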
Conditions: for IC50: curve of first compound; for viability, T/C: stronger effect = lower value
Outline: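 Tumor cells were grown as complex spheroids with human endothelial cells (HUVEC) and human mesenchymal stem cells as stroma. Agents were tested alone and in combination, in half-log steps down from the clinical Cmax, or from 10 microM where Cmax was unknown.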

## Cc1nc(N2CCC3(CC2)COC(C)C3N)c(CO)nc1Sc1ccnc(N)c1Cl (stereo not given) + CCN1C(C(=O)NC23CCC(C(=O)O)(CC2)CC3)C(c2cccc(Cl)c2F)C2(C(=O)Nc3cc(Cl)ccc32)C12CCCCC2
Second compound 0.03 µM
  IC50: > 3 µM
Second compound 0.0949 µM
  IC50: > 3 µM
Second compound 0.3 µM
  IC50: > 3 µM
Second compound 0.949 µM
  IC50: > 3 µM
Second compound 3 µM
  IC50: > 3 µM
Second compound 0.03 µM, first compound 0.00949 µM
  viability, T/C: 103%
Second compound 0.03 µM, first compound 0.03 µM
  viability, T/C: 119%
Second compound 0.03 µM, first compound 0.0949 µM
  viability, T/C: 119%
Second compound 0.03 µM, first compound 0.3 µM
  viability, T/C: 119%
Second compound 0.03 µM, first compound 0.949 µM
  viability, T/C: 114%
Second compound 0.03 µM, first compound 3 µM
  viability, T/C: 95.9%
Second compound 0.0949 µM, first compound 0.00949 µM
  viability, T/C: 110%
Second compound 0.0949 µM, first compound 0.03 µM
  viability, T/C: 91.5%
Second compound 0.0949 µM, first compound 0.0949 µM
  viability, T/C: 123%
Second compound 0.0949 µM, first compound 0.3 µM
  viability, T/C: 102%
Second compound 0.0949 µM, first compound 0.949 µM
  viability, T/C: 104%
Second compound 0.0949 µM, first compound 3 µM
  viability, T/C: 84.3%
Second compound 0.3 µM, first compound 0.00949 µM
  viability, T/C: 101%
Second compound 0.3 µM, first compound 0.03 µM
  viability, T/C: 116%
Second compound 0.3 µM, first compound 0.0949 µM
  viability, T/C: 104%
Second compound 0.3 µM, first compound 0.3 µM
  viability, T/C: 101%
Second compound 0.3 µM, first compound 0.949 µM
  viability, T/C: 110%
Second compound 0.3 µM, first compound 3 µM
  viability, T/C: 90.6%
Second compound 0.949 µM, first compound 0.00949 µM
  viability, T/C: 116%
Second compound 0.949 µM, first compound 0.03 µM
  viability, T/C: 105%
Second compound 0.949 µM, first compound 0.0949 µM
  viability, T/C: 98.5%
Second compound 0.949 µM, first compound 0.3 µM
  viability, T/C: 96%
Second compound 0.949 µM, first compound 0.949 µM
  viability, T/C: 91.9%
Second compound 0.949 µM, first compound 3 µM
  viability, T/C: 102%
Second compound 3 µM, first compound 0.00949 µM
  viability, T/C: 99.9%
Second compound 3 µM, first compound 0.03 µM
  viability, T/C: 97.5%
Second compound 3 µM, first compound 0.0949 µM
  viability, T/C: 102%
Second compound 3 µM, first compound 0.3 µM
  viability, T/C: 120%
Second compound 3 µM, first compound 0.949 µM
  viability, T/C: 88.2%
Second compound 3 µM, first compound 3 µM
  viability, T/C: 115%

## C#Cc1c(F)ccc2cc(O)cc(-c3ncc4c(N5CC6CCC(C5)N6)nc(OCC56CCCN5CC(F)C6)nc4c3F)c12 (stereo not given) + Cc1c(S(C)(=O)=O)c(-c2cc(F)cc(N3CCN(c4ccc(NS(=O)(=O)c5ccc(NC(CCN6CCC(C(=O)OCCCP(=O)(O)O)CC6)CSc6ccccc6)c(S(=O)(=O)C(F)(F)F)c5)cc4)CC3)c2)c(-c2ccc(Cl)cc2)n1C(C)C
Second compound 0.1 µM
  IC50: > 10 µM
Second compound 0.316 µM
  IC50: > 10 µM
Second compound 1 µM
  IC50: > 10 µM
Second compound 3.16 µM
  IC50: > 10 µM
Second compound 10 µM
  IC50: 6.6 µM
Second compound 0.1 µM, first compound 0.0316 µM
  viability, T/C: 119%
Second compound 0.1 µM, first compound 0.1 µM
  viability, T/C: 121%
Second compound 0.1 µM, first compound 0.316 µM
  viability, T/C: 103%
Second compound 0.1 µM, first compound 1 µM
  viability, T/C: 81.1%
Second compound 0.1 µM, first compound 3.16 µM
  viability, T/C: 93.4%
Second compound 0.1 µM, first compound 10 µM
  viability, T/C: 109%
Second compound 0.316 µM, first compound 0.0316 µM
  viability, T/C: 112%
Second compound 0.316 µM, first compound 0.1 µM
  viability, T/C: 104%
Second compound 0.316 µM, first compound 0.316 µM
  viability, T/C: 105%
Second compound 0.316 µM, first compound 1 µM
  viability, T/C: 91.7%
Second compound 0.316 µM, first compound 3.16 µM
  viability, T/C: 89.9%
Second compound 0.316 µM, first compound 10 µM
  viability, T/C: 73%
Second compound 1 µM, first compound 0.0316 µM
  viability, T/C: 105%
Second compound 1 µM, first compound 0.1 µM
  viability, T/C: 121%
Second compound 1 µM, first compound 0.316 µM
  viability, T/C: 119%
Second compound 1 µM, first compound 1 µM
  viability, T/C: 109%
Second compound 1 µM, first compound 3.16 µM
  viability, T/C: 108%
Second compound 1 µM, first compound 10 µM
  viability, T/C: 73%
Second compound 3.16 µM, first compound 0.0316 µM
  viability, T/C: 108%
Second compound 3.16 µM, first compound 0.1 µM
  viability, T/C: 101%
Second compound 3.16 µM, first compound 0.316 µM
  viability, T/C: 110%
Second compound 3.16 µM, first compound 1 µM
  viability, T/C: 115%
Second compound 3.16 µM, first compound 3.16 µM
  viability, T/C: 109%
Second compound 3.16 µM, first compound 10 µM
  viability, T/C: 77%
Second compound 10 µM, first compound 0.0316 µM
  viability, T/C: 102%
Second compound 10 µM, first compound 0.1 µM
  viability, T/C: 89.3%
Second compound 10 µM, first compound 0.316 µM
  viability, T/C: 113%
Second compound 10 µM, first compound 1 µM
  viability, T/C: 70.3%
Second compound 10 µM, first compound 3.16 µM
  viability, T/C: 74.3%
Second compound 10 µM, first compound 10 µM
  viability, T/C: 38.5%

## NC(=O)C(=Cn1cnc(-c2cc(C(F)(F)F)cc(C(F)(F)F)c2)n1)c1cncnc1 + Cc1c(S(C)(=O)=O)c(-c2cc(F)cc(N3CCN(c4ccc(NS(=O)(=O)c5ccc(NC(CCN6CCC(C(=O)OCCCP(=O)(O)O)CC6)CSc6ccccc6)c(S(=O)(=O)C(F)(F)F)c5)cc4)CC3)c2)c(-c2ccc(Cl)cc2)n1C(C)C
Second compound 0.1 µM
  IC50: 0.199 µM
Second compound 0.316 µM
  IC50: 0.126 µM
Second compound 1 µM
  IC50: 0.0734 µM
Second compound 3.16 µM
  IC50: 0.169 µM
Second compound 10 µM
  IC50: 0.0534 µM
Second compound 0.1 µM, first compound 0.000949 µM
  viability, T/C: 87%
Second compound 0.1 µM, first compound 0.003 µM
  viability, T/C: 76.6%
Second compound 0.1 µM, first compound 0.00949 µM
  viability, T/C: 109%
Second compound 0.1 µM, first compound 0.03 µM
  viability, T/C: 74.3%
Second compound 0.1 µM, first compound 0.0949 µM
  viability, T/C: 86.7%
Second compound 0.1 µM, first compound 0.3 µM
  viability, T/C: 29.6%
Second compound 0.316 µM, first compound 0.000949 µM
  viability, T/C: 102%
Second compound 0.316 µM, first compound 0.003 µM
  viability, T/C: 73.5%
Second compound 0.316 µM, first compound 0.00949 µM
  viability, T/C: 103%
Second compound 0.316 µM, first compound 0.03 µM
  viability, T/C: 78.2%
Second compound 0.316 µM, first compound 0.0949 µM
  viability, T/C: 66.8%
Second compound 0.316 µM, first compound 0.3 µM
  viability, T/C: 4.66%
Second compound 1 µM, first compound 0.000949 µM
  viability, T/C: 88.5%
Second compound 1 µM, first compound 0.003 µM
  viability, T/C: 76.9%
Second compound 1 µM, first compound 0.00949 µM
  viability, T/C: 88.9%
Second compound 1 µM, first compound 0.03 µM
  viability, T/C: 74%
Second compound 1 µM, first compound 0.0949 µM
  viability, T/C: 43%
Second compound 1 µM, first compound 0.3 µM
  viability, T/C: 6.15%
Second compound 3.16 µM, first compound 0.000949 µM
  viability, T/C: 79.2%
Second compound 3.16 µM, first compound 0.003 µM
  viability, T/C: 88.6%
Second compound 3.16 µM, first compound 0.00949 µM
  viability, T/C: 94.8%
Second compound 3.16 µM, first compound 0.03 µM
  viability, T/C: 59.2%
Second compound 3.16 µM, first compound 0.0949 µM
  viability, T/C: 89%
Second compound 3.16 µM, first compound 0.3 µM
  viability, T/C: 18.3%
Second compound 10 µM, first compound 0.000949 µM
  viability, T/C: 76.1%
Second compound 10 µM, first compound 0.003 µM
  viability, T/C: 84.5%
Second compound 10 µM, first compound 0.00949 µM
  viability, T/C: 59.3%
Second compound 10 µM, first compound 0.03 µM
  viability, T/C: 70%
Second compound 10 µM, first compound 0.0949 µM
  viability, T/C: 35%
Second compound 10 µM, first compound 0.3 µM
  viability, T/C: 1.98%
